Test results reported in patent publication US20220298145A1, “BRAF INHIBITORS AS PARADOX BREAKERS” (Hoffmann-La Roche Inc., priority 2019, published 2022).
Where two headings read alike, the source gives them in different places.

Assays:
BRAF (V600E) = BRAF (V600E) (Homo sapiens, UniProt P15056, V600E); assay: Kd for RAF kinases: BRAF (V600E); assay type: binding
BRAF = BRAF (Homo sapiens, UniProt P15056); assay: Kd for RAF kinases: BRAF; assay type: binding
CRAF = CRAF (Homo sapiens, UniProt P04049); assay: Kd for RAF kinases: CRAF; assay type: binding
[1] = test system: ERK 1,2 phosphorylation in A375 cells expressing V600E mutated BRAF; assay: HTRF assay for P-ERK determination in A375 cells (BRAF inhibition); assay type: cell-based; conditions: Homo sapiens, A-375, 1 h, read-out: pERK IC50 A375
Text: (§1) DMEM no-phenol red medium supplemented with L-glutamine was purchased from (Thermo Fisher Scientific). Fetal bovine serum (FBS) was purchased from VWR. Advanced ERK phospho-T202/Y204 kit-10,000 tests was purchased from Cisbio cat #64AERPEH. A375 and HCT116 cells were originally obtained from ATCC and banked by the Roche repository.
A375 is a cellular cancer model expressing V600E mutated BRAF and HCT116 a cellular cancer model expressing WT BRAF. […] ERK 1,2 phosphorylation (terminal member of the phosphorylation cascade of the MAPK pathway) is hereafter reported as main readout for the activation status of the MAPK pathway. Prior to the assay, A375 and HCT116 cell lines are maintained in DMEM no-phenol red medium supplemented with 10% fetal bovine serum (FBS). […] Briefly, 8000 cells/well in 12 μl media/well are plated in the 384-well plate and left overnight in the incubator (at 37° C. with 5% CO2-humidified atmosphere), the following day the plate is treated in duplicate with test compounds, dabrafenib and PLX8394 (the latter two as controls) at the following final drug concentrations: 10 μM-3 μM-1 μM-0.3 μM-0.1 μM-0.03 μM-0.01 μM-0.003 μM-0.001 μM, all wells are subjected to DMSO normalization and drug incubation occurs for 1 hour. Then, 4 μl of a 4× lysis buffer supplied with the kit are added to the wells, the plate is then centrifuged for 30 second (300 rcf) and incubated on a plate shaker for 1 h at RT.
(§2) At the end of the incubation 4 μL/well of advanced P-ERK antibody solution (prepared according to manufacturer's instruction) followed by 4 μL/well of criptate P-ERK antibody solution (prepared according to manufacturer's instruction) (Cisbio cat #64AERPEH) are added to test wells.
(§3) In order to allow proper data normalization control wells non drug treated reported in the following table are always included in each plate (according to manufacturer's instruction):
(§4) The plate is then centrifuged at 300 rcf for 30 second, sealed to prevent evaporation and incubated overnight in the dark at room temperature.
(§5) The obtained fluorescence values are processed according to the formula Ratio=Signal (620 nm)/Signal (625 nm)*10000 then the average of the ratio on the blank is subtracted to all values.
Data are normalized in the case of A375 cells (BRAF inhibition) considering the average of the ratio (blank subtracted) derived by DMSO only treated cells as 100% and by considering the average of the ratio (blank subtracted) derived by 10 uM dabrafenib treated cells as 0%. Mean of the normalized points are fitted with sigmoidal curve and IC50 determined.

[2] = test system: ERK 1,2 phosphorylation in HCT116 cells expressing WT BRAF; assay: HTRF assay for P-ERK determination in HCT116 cells (paradoxical BRAF activation); assay type: cell-based; conditions: for Emax: Homo sapiens, HCT-116, read-out: Percentage of maximum paradox inducing effect from dabrafenib; for EC50: read-out: P-ERK EC50 conc. at which the compound induces p-ERK activation of 50% of that induced by dabrafenib (Positive control paradox inducer) HCT-116, HCT-116 cells, 1 hour drug incubation, not applicable = activation does not reach 50% of dabrafenib maximum
Text: as §1, with “repository. 384-well microplates were purchased from Greiner Bio-One, 384-well, (With Lid, HiBase, Low volume cat 784-080).” for “repository.”
A375 is a cellular cancer model expressing V600E mutated BRAF and HCT116 a cellular cancer model expressing WT BRAF. First generation BRAF inhibitors such as e.g. dabrafenib induce a paradox effect on tumour cells in that they inhibit the growth of V600E mutated BRAF cells (such as e.g. A375), while they activate growth in WT BRAF cells (such as e.g. HCT 116). ERK 1,2 phosphorylation (terminal member of the phosphorylation cascade of the MAPK pathway) is hereafter reported as main readout for the activation status of the MAPK pathway. Prior to the assay, A375 and HCT116 cell lines are maintained in DMEM no-phenol red medium supplemented with 10% fetal bovine serum (FBS). Following compound treatment, P-ERK levels are determined by measuring FRET fluorescence signal induced by selective binding of 2 antibodies provided in the mentioned kit (Cisbio cat #64AERPEH) on ERK protein when phosphorylated at Thr202/Tyr204. Briefly, 8000 cells/well in 12 μl media/well are plated in the 384-well plate and left overnight in the incubator (at 37° C. with 5% CO2-humidified atmosphere), the following day the plate is treated in duplicate with test compounds, dabrafenib and PLX8394 (the latter two as controls) at the following final drug concentrations: 10 μM-3 μM-1 μM-0.3 μM-0.1 μM-0.03 μM-0.01 μM-0.003 μM-0.001 μM, all wells are subjected to DMSO normalization and drug incubation occurs for 1 hour. Then, 4 μl of a 4× lysis buffer supplied with the kit are added to the wells, the plate is then centrifuged for 30 second (300 rcf) and incubated on a plate shaker for 1 h at RT.
as §2, §3, §4
The plate is then analyzed and fluorescence emission value collected through a Pherastast FSX (BMG Labtech) apparatus at […].
as §5
Data are normalized in the case of HCT116 cells (BRAF activation) considering the average of the ratio (blank subtracted) derived by DMSO only treated cells as 0% and by considering the average of the ratio (blank subtracted) derived by dabrafenib treated cells at the concentration which provides the highest signal as 100%. Individual points are fitted with either sigmoidal or bell shape curves, and the percentage of activation compared to maximum dabrafenib-mediated activation is determined. The EC50 is the concentration at which activation equal to 50% of the maximum achieved by dabrafenib is obtained.
The Percentage of Maximum paradox inducing effect from dabrafenib is determined by evaluating the percentage at which the test compound induce its maximum P-ERK signal as percentage of the highest signal produced by dabrafenib within the dose range tested.

Chain of CRAF (P04049 whole entry): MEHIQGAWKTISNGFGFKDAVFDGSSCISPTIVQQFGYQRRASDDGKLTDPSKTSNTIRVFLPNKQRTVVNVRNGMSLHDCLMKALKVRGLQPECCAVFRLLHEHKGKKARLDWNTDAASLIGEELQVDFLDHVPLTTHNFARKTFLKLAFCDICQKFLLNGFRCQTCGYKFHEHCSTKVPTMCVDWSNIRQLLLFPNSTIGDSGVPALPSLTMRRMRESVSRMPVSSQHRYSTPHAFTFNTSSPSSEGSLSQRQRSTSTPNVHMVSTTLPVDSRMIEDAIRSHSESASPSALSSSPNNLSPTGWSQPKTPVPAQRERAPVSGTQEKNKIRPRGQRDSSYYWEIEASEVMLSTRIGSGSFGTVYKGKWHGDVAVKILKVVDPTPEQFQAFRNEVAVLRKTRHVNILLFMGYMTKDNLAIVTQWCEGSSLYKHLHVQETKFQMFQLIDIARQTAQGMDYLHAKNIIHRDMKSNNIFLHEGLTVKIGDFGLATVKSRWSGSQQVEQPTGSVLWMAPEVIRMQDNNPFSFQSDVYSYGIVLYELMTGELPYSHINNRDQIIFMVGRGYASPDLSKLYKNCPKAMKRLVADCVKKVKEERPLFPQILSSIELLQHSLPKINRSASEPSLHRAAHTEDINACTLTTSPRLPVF
Chain of BRAF (P15056 whole entry): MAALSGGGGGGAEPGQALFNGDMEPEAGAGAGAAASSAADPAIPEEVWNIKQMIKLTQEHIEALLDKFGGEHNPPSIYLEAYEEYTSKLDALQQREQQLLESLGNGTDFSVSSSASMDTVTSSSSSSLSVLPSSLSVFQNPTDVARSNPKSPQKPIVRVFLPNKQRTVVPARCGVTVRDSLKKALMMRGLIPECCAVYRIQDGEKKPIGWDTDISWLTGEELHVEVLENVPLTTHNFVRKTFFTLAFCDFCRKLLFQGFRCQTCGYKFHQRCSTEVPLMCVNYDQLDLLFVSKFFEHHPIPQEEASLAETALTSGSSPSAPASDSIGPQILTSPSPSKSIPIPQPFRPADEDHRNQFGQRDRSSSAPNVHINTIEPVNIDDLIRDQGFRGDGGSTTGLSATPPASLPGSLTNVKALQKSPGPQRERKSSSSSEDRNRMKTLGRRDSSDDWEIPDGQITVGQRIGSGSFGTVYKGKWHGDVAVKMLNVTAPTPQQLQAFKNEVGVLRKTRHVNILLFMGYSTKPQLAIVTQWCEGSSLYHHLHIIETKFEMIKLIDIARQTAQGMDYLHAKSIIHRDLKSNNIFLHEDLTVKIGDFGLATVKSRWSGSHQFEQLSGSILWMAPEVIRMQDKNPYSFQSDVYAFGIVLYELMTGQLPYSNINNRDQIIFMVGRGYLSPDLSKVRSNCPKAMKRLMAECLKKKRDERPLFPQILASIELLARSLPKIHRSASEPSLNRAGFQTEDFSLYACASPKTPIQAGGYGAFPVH
Chain of BRAF (V600E) (P15056 whole entry V600E): as the sequence (P15056 whole entry) above, with V600E counted along it

| SMILES | Kd (BRAF (V600E)) [nM] | Kd (BRAF) [nM] | Kd (CRAF) [nM] | IC50 [1] [nM] | Emax [2] [%] | EC50 [2] [nM] | Kd (BRAF (V600E); read-out: Kd BRAF (V600E)) [nM] | Kd (BRAF; read-out: Kd BRAF) [nM] |
| --- | --- | --- | --- | --- | --- | --- | --- | --- |
| CCC(C)S(=O)(=O)Nc1cccc(Oc2ccc3ncn(C)c(=O)c3c2)c1C#N (racemic) [Example 10, (RS)—N-[2-cyano-3-(3-methyl-4-oxo-quinazolin-6-yl)oxy-phenyl]butane-2-sulfonamide] | 14.4 | 3.9 | 6.8 | 8.8 | 21 | – | – | – |
| Cn1cnc2ccc(Oc3c(Cl)ccc(NS(=O)(=O)N4CCCC4)c3C#N)cc2c1=O [Example 4, N-[4-chloro-2-cyano-3-(3-methyl-4-oxo-quinazolin-6-yl)oxy-phenyl]pyrrolidine-1-sulfonamide] | 4.6 | 2.1 | 1.6 | 34.3 | 65 | 714 | – | – |
| Cn1cnc2ccc(Oc3c(Cl)ccc(NS(=O)(=O)N4CC[C@@H](F)C4)c3C#N)cc2c1=O [Example 3, (3R)—N-[4-chloro-2-cyano-3-(3-methyl-4-oxo-quinazolin-6-yl)oxy-phenyl]-3-fluoro-pyrrolidine-1-sulfonamide] | 6.3 | 10 | 9.4 | 14.8 | 61 | > 1000 | – | – |
| Cn1cnc2ccc(Oc3cccc(NS(=O)(=O)N4CC[C@@H](F)C4)c3C#N)cc2c1=O [Example 7, (3R)—N-[2-cyano-3-(3-methyl-4-oxo-quinazolin-6-yl)oxy-phenyl]-3-fluoro-pyrrolidine-1-sulfonamide] | 4.5 | 8.9 | 8.9 | 26.2 | 32 | – | – | – |
| CCN(C)S(=O)(=O)Nc1ccc(F)c(Oc2ccc3ncn(C)c(=O)c3c2)c1C#N [Example 1, 6-[2-cyano-3-[[ethyl(methyl)sulfamoyl]amino]-6-fluoro-phenoxy]-3-methyl-4-oxo-quinazoline] | – | – | 6.3 | 5.5 | 56 | > 1000 | 3.4 | 1.6 |
| Cn1cnc2ccc(Oc3cccc(NS(=O)(=O)C4CCCCC4)c3C#N)cc2c1=O [Example 9, N-[2-cyano-3-(3-methyl-4-oxo-quinazolin-6-yl)oxy-phenyl]cyclohexanesulfonamide] | – | – | 0.8 | 13.9 | 44 | – | 4 | 2.4 |
